Results taken from patent publication US4547354A (priority 1983, dated 1985).
Like-named read-outs stand apart in the source and are kept apart here.

Settings: 95° C., 4 hours

Compound: OO [H2 O2, hydrogen peroxide]
- % Hydrogen Peroxide Recovery (Example 1 of Table II: chlorobenzene 40.0 g, no acetone/methanol): 101%
- Hydrogen Peroxide (mmoles) Recovered (Example 1 of Table II: chlorobenzene 40.0 g, no acetone/methanol, 93.6 mmoles in): 94.1 mmol
- % Hydrogen Peroxide Recovery (Example 2 of Table II: chlorobenzene 40.0 g, with acetone and methanol): 67%
- Hydrogen Peroxide (mmoles) Recovered (Example 2 of Table II: chlorobenzene 40.0 g, with acetone and methanol, 104.2 mmoles in): 69.4 mmol
- % Hydrogen Peroxide Recovery (Example A: sulfuric acid, no chlorobenzene, no acetone/methanol): 107%
- Hydrogen Peroxide (mmoles) Recovered (Example A: sulfuric acid, no chlorobenzene, no acetone/methanol, 104.0 mmoles in): 111.7 mmol
- % Hydrogen Peroxide Recovery (Example B: no chlorobenzene, with acetone and methanol): 3%
- Hydrogen Peroxide (mmoles) Recovered (Example B: no chlorobenzene, with acetone and methanol, 104.8 mmoles in): 3.2 mmol
